Assay results as given in paper PMC10867212, “Comparative pharmacokinetics of polymyxin B in critically ill elderly patients with extensively drug-resistant gram-negative bacteria infections” (Frontiers in Pharmacology, 2024).
Where two headings read alike, the source gives them in different places. Where a SMILES comes first, the peptide text is derived from it. Bridges are numbered along the chain shown (N, C = ends). [ ]: non-standard residue; d: D form. The star is where a group is joined. X1 = CC[C@H](C)CCCCC(=O)*; Dab = NCC[C@H](N)C(=O)O

Legend:
[1] = Steady-state plasma pharmacokinetics of intravenous polymyxin B in critically ill patients (non-compartmental analysis); type: in vivo, human; settings: for Normalized AUCss, 0–24 h: AUC adjusted to a daily dose of 1 mg/kg of TBW; for Cmin / Css, avg (average steady-state plasma concentration) / Cmax / AUC(0-t): HPLC-MS/MS; for Tmax: iv infusion of at least 1 h; for half-life: read-out: Half-time time (converted)
Excerpt: All adult patients admitted to the participating intensive care unit (ICU) in a teaching hospital between December 2021 and July 2023 were consecutively screened for entry into this prospective observational study. The ICU served a mixed population of medical, surgical, trauma, and neurologic patients. All critically ill patients (≥18 years) were eligible if they received intravenous PMB for more than 3 days (sulfate; PMB injection, Shanghai First Biochemical Pharmaceutical Co., Ltd., China) for the treatment of documented XDR-GNB infections. Exclusion criteria were 1) patients with anuria or who received blood purification therapy or extracorporeal membrane oxygenation during PMB treatment; 2) pregnant women. Informed written consent was obtained from each patient or a legal representative of the family. This study protocol was approved by the human ethics committees in Shandong Provincial Hospital Affiliated to Shandong First Medical University (protocol SWYX: No. 2021-356) and was carried out in accordance with the Declaration of Helsinki (2000) of the World Medical Association.
Patients were enrolled on the first day of intravenous PMB administration. This study continued for 28 days or until discharge from the hospital or death. According to the patient’s age, the enrolled patients were divided into two groups: the elderly group (≥65 years) and the young group (<65 years).
PMB was administrated intravenously with a loading dose of 2.0–2.5 mg/kg and maintenance doses of 1.25–1.5 mg/kg every 12 h, with at least 1 h infusion time. Calculation of both the loading dose and maintenance dose was based on the total body weight (TBW) of the patient. No dose adjustment was performed in patients with renal insufficiency and renal replacement therapy. Concurrent prescription of other potential nephrotoxic drugs, such as vancomycin, aminoglycoside, etc., was avoided as much as possible at any time during PMB treatment in our study. The initiation of PMB treatment as well as the concomitant antibiotics and their duration were at the discretion of the ICU physicians.
For steady-state PK assessment, blood samples were obtained after at least six doses of PMB. In each patient, six to eight blood samples (3 mL) were collected immediately 10 min before the infusion and 30 min and 1, 2, 3, 6, 8, and 12 h after the beginning of infusion in ethylenediaminetetraacetic acid anticoagulant tubes. Blood samples were immediately centrifuged at 3500 g for 10 min, and the plasma samples were collected and stored at −80°C until analysis. The PMB plasma concentrations were quantified by measuring both polymyxin B1 and B2 using validated high-performance liquid chromatography-tandem mass spectrometry.
The primary outcome was steady-state PMB exposure as reflected by AUCss, 0–24 h. Non-compartmental PK analysis was conducted using Phoenix WinNonlin software 8.3 (Certara, United States). The clinical variables were summarized as means with standard deviation for approximately normally distributed continuous variables or medians with interquartile range for non-normally distributed continuous variables and as frequencies and percentages for categorical variables. The normality of all data sets was determined using the Kolmogorov-Smirnov test. Categorical variables were analyzed by the chi-square or Fisher exact test, while continuous variables were analyzed by the two-tailed non-paired Student’s t-test or Mann-Whitney U test. […] All the analyses were performed with the use of the SPSS for Windows statistical program (version 22.0; IBM Corp., Armonk, NY).

[2] = ref Zavascki et al., 2008; Yun et al., 2015; cited from earlier work
Excerpt: PMB has been reported to accumulate in large quantities in the kidney, much more than in other organs, such as the heart, lungs, and brain. […] Considering that PMB is poorly recovered in urine (less than 1%) ([Zavascki et al., 2008]; [Yun et al., 2015]), it may be filtered from the glomerulus and reabsorbed in the proximal tubule.

[3] = all patients (n = 23), iv 1.25–1.5 mg/kg q12h, steady state, mean ± SD, SD
[4] = elderly group ≥65 years (n = 17), iv 1.25–1.5 mg/kg q12h, steady state, mean ± SD, SD
[5] = young group <65 years (n = 6), iv 1.25–1.5 mg/kg q12h, steady state, mean ± SD, SD

CC[C@H](C)CCCCC(=O)N[C@@H](CCN)C(=O)N[C@H](C(=O)N[C@@H](CCN)C(=O)N[C@H]1CCNC(=O)[C@H]([C@@H](C)O)NC(=O)[C@H](CCN)NC(=O)[C@H](CCN)NC(=O)[C@H](CC(C)C)NC(=O)[C@@H](Cc2ccccc2)NC(=O)[C@H](CCN)NC1=O)[C@@H](C)O [polymyxin B] (X1-[Dab]T[Dab][Dab][Dab][dF]L[Dab][Dab]T; lactam 4-C)
Normalized AUCss, 0–24 h ([1]; all patients (n = 23), steady state, mean ± SD, SD): 52.31 ± 28.65 mg·h/L
Cmin [1, 3]: 2990 ± 1990 ng/mL
Css, avg (average steady-state plasma concentration) [1, 3]: 4200 ± 2230 ng/mL
Normalized AUCss, 0–24 h ([1]; elderly group ≥65 years (n = 17), steady state, mean ± SD, SD): 55.23 ± 28.51 mg·h/L
Cmax [1, 4]: 9230 ± 2840 ng/mL
Cmin [1, 4]: 3110 ± 1790 ng/mL
Css, avg (average steady-state plasma concentration) [1, 4]: 4320 ± 2110 ng/mL
Clearance per TBW ([1]; elderly group ≥65 years (n = 17), per total body weight, iv, steady state, non-compartmental, mean ± SD, SD): 0.6 ± 0.4 mL/min/kg
AUC(0-t) ([1]; human, elderly group ≥65 years (n = 17), iv 1.25–1.5 mg/kg q12h after loading dose, steady state (≥6 doses), non-compartmental, mean ± SD, SD, read-out: AUCss, 0–12 h): 51800 ± 25300 ng·h/mL
Cmax ([1]; human, iv, all patients (n = 23), iv 1.25–1.5 mg/kg q12h, steady state, mean ± SD, SD, read-out: Cmax): 9410 ± 3120 ng/mL
AUC(0-t) ([1]; human, iv, all patients (n = 23), iv 1.25–1.5 mg/kg q12h, steady state, non-compartmental, mean ± SD, SD, read-out: AUCss, 0–24 h): 71900 ± 41800 ng·h/mL
AUC(0-t) ([1]; human, iv, all patients (n = 23), iv 1.25–1.5 mg/kg q12h after loading dose, steady state (≥6 doses), non-compartmental, mean ± SD, SD, read-out: AUCss, 0–12 h): 50300 ± 27000 ng·h/mL
Tmax ([1]; human, iv, all patients (n = 23), steady state, mean ± SD, SD): 54.6 ± 29.4 min
clearance ([1]; human, iv, all patients (n = 23), iv, steady state, non-compartmental, mean ± SD, SD, read-out: Clearance (converted)): 41.5 mL/min
Vd ([1]; human, iv, all patients (n = 23), iv, steady state, non-compartmental, mean ± SD, SD, read-out: Volume of distribution): 24.7 ± 11.7 L
clearance ([1]; human, iv, all patients (n = 23), per total body weight, iv, steady state, non-compartmental, mean ± SD, SD, read-out: Clearance per TBW (converted)): 0.6 mL/min/kg
Vd ([1]; human, iv, all patients (n = 23), per total body weight, iv, steady state, non-compartmental, mean ± SD, SD, read-out: Volume of distribution per TBW): 0.37 ± 0.17 L/kg
AUC(0-t) ([1]; human, iv, elderly group ≥65 years (n = 17), iv 1.25–1.5 mg/kg q12h, steady state, non-compartmental, mean ± SD, SD, read-out: AUCss, 0–24 h): 76200 ± 41800 ng·h/mL
Tmax ([1]; human, iv, elderly group ≥65 years (n = 17), steady state, mean ± SD, SD): 56.5 ± 33.6 min
clearance ([1]; human, iv, elderly group ≥65 years (n = 17), iv, steady state, non-compartmental, mean ± SD, SD, read-out: Clearance (converted)): 39.5 mL/min
half-life ([1]; human, iv, elderly group ≥65 years (n = 17), iv, steady state, non-compartmental, mean ± SD, SD): 673 ± 323 min
Vd ([1]; human, iv, elderly group ≥65 years (n = 17), iv, steady state, non-compartmental, mean ± SD, SD, read-out: Volume of distribution): 25.5 ± 12.9 L
Vd ([1]; human, iv, elderly group ≥65 years (n = 17), per total body weight, iv, steady state, non-compartmental, mean ± SD, SD, read-out: Volume of distribution per TBW): 0.4 ± 0.19 L/kg
Cmax ([1]; human, iv, young group <65 years (n = 6), iv 1.25–1.5 mg/kg q12h, steady state, mean ± SD, SD, read-out: Cmax): 9890 ± 4070 ng/mL
AUC(0-t) ([1]; human, iv, young group <65 years (n = 6), iv 1.25–1.5 mg/kg q12h, steady state, non-compartmental, mean ± SD, SD, read-out: AUCss, 0–24 h): 59500 ± 43100 ng·h/mL
Tmax ([1]; human, iv, young group <65 years (n = 6), steady state, mean ± SD, SD): 49.8 ± 15.6 min
clearance ([1]; human, iv, young group <65 years (n = 6), iv, steady state, non-compartmental, mean ± SD, SD, read-out: Clearance (converted)): 47.5 mL/min
half-life ([1]; human, iv, young group <65 years (n = 6), iv, steady state, non-compartmental, mean ± SD, SD): 394 ± 69.6 min
Vd ([1]; human, iv, young group <65 years (n = 6), iv, steady state, non-compartmental, mean ± SD, SD, read-out: Volume of distribution): 22.3 ± 7.6 L
clearance ([1]; human, iv, young group <65 years (n = 6), per total body weight, iv, steady state, non-compartmental, mean ± SD, SD, read-out: Clearance per TBW (converted)): 0.617 mL/min/kg
Vd ([1]; human, iv, young group <65 years (n = 6), per total body weight, iv, steady state, non-compartmental, mean ± SD, SD, read-out: Volume of distribution per TBW): 0.29 ± 0.09 L/kg
AUCss, 0–24 h (range) ([1]; range over the critically ill patients (n = 23), steady state): 11300 to 151280 ng·h/mL
Normalized AUCss, 0–24 h ([1]; young group <65 years (n = 6), steady state, mean ± SD, SD): 44.03 ± 30.00 mg·h/L
Cmin [1, 5]: 2650 ± 2640 ng/mL
Css, avg (average steady-state plasma concentration) [1, 5]: 3880 ± 2750 ng/mL
Recovery in urine [2]: less than 1%
